Source: patent US7063959B1, “Compositions of the SOC/CRAC calcium channel protein family” (priority 1998, dated 2006)

Tested on: SOC/CRAC calcium channel
Test: Pharmacologic behavior of SOC/CRAC: calcium influx elicited by store depletion (fura-2) in SOC/CRAC-expressing cells
Format: cell-based
Conditions: SOC/CRAC expressed in RBL-2H3 mast cells by recombinant vaccinia virus; stores depleted with thapsigargin; cells pre-incubated with reagent; effect substantially the same as on endogenous thapsigargin-dependent calcium influx

`CCCCCCCCCCCCC/C=C/[C@@H](O)[C@@H](N)CO` [sphingosine, Sphingosine] was tested, and the SOC/CRAC-enhanced calcium influx was “inhibited”.
